The results in this text go back to patent publication US20250186408A1, “TREATMENT OF PHARMACORESISTANT EPILEPSY” (Katholieke Universiteit Leuven, priority 2021, published 2025).

Holding throughout (format): cell-based
Assay [1] has as its target T1, AR (Homo sapiens, UniProt P10275).
T1 construct: enzyme fragment for PathHunter enzyme fragment complementation (EFC)
T1 sequence (P10275 1-920): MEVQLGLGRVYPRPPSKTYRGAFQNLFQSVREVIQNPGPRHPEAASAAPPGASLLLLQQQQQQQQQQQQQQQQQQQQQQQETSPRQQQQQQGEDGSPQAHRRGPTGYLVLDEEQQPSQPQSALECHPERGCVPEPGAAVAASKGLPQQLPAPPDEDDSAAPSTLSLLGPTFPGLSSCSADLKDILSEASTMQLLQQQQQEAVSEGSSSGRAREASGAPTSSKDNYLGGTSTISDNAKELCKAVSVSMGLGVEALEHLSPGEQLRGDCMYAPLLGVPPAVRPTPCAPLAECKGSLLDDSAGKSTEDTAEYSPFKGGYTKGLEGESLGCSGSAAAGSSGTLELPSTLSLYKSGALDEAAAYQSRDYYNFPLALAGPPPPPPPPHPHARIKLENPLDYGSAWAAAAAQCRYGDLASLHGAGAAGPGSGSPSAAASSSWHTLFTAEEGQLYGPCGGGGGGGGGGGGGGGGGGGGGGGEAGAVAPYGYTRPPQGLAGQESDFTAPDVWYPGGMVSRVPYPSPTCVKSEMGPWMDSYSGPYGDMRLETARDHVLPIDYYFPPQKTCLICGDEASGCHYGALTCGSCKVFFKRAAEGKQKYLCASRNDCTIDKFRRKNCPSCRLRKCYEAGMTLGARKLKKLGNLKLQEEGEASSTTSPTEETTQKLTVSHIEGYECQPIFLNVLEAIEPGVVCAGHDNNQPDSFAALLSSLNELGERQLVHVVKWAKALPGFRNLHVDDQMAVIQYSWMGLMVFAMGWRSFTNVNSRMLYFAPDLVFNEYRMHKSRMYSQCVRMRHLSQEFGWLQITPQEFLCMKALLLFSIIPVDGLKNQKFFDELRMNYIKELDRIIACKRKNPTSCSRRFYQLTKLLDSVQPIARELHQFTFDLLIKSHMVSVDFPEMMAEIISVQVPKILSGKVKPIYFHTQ
The experiment in a line: NHR Nuclear Translocation AR Agonist.
Description: (§1) In vitro pharmacological profiling of compounds was done against 78 functional assays for 47 common off-targets (30) by Eurofins DiscoverX Corporation (Fremont, CA, USA) using their SAFETYscan E/IC50 ELECT service (Cat Ref 87-1003DR, Safety47 Panel Dose Response). The following assays were performed: (1) GPCR cAMP modulation, (2) calcium mobilization, (3) nuclear hormone receptor assays, (4) KINOMEscan binding assays, (5) ion channel assays, (6) transporter assays and (7) enzymatic assays. Compounds were tested in a range of 10 concentrations, following a 3-fold serial dilution, starting from 10 μM. The assays were performed utilizing the PathHunter enzyme fragment complementation (EFC) technology, FLIPR®-based cellular screening assays, and KINOMEscan kinase binding assays.
(§2) Prior to testing, PathHunter NHR cell lines were expanded from freezer stocks and cells were seeded in a total volume of 20 μL into white walled 384-well microplates and incubated at 37° C. […] Microplates were read following signal generation with a PerkinElmer Envision™ instrument for chemiluminescent signal detection. Compound activity was analysed using CBIS data analysis suite (ChemInnovation, CA). For agonist mode assays, percentage activity was calculated using the following equation:

Assay [2] addresses T1, AR. The experiment in a line: NHR Nuclear Translocation AR Antagonist.
Description: as §1, §2
For assay [3], the target named is T2, GR (Homo sapiens, UniProt P04150).
T2 construct: enzyme fragment for PathHunter enzyme fragment complementation (EFC)
T2 sequence (P04150 1-777): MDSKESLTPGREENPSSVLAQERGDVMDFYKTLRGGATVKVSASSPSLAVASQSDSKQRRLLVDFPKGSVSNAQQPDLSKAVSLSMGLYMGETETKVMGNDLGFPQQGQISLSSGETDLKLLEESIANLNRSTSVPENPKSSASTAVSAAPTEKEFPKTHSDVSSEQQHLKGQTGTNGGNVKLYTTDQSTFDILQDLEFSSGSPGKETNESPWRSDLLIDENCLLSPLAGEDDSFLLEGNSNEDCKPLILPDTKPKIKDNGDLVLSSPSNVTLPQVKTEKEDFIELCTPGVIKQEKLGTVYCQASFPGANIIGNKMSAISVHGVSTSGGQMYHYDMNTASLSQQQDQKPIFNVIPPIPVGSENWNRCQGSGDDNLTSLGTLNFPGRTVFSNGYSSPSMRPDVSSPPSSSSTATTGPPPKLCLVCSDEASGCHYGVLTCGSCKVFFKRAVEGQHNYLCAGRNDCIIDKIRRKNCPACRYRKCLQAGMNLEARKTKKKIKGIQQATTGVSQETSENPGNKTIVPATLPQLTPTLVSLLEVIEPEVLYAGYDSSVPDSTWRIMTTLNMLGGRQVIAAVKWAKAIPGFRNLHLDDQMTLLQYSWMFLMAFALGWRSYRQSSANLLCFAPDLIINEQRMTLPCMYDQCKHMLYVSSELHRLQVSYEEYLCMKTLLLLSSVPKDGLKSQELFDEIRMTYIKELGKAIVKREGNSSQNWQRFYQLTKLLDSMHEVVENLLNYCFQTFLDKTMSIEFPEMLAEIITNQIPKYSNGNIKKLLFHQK
Description: NHR Protein Interaction GR Agonist.
Description: as §1, §2

The target of assay [4] is T2, GR. Description: NHR Protein Interaction GR Antagonist.
Description: as §1, §2

`Clc1cccc(C#Cc2n[nH]c3ncccc23)c1` [Compound 10.1, 3-((3-chlorophenyl)ethynyl)-1H-pyrazolo[3,4-b]pyridine]: the EC50 was more than 10 µM at AR [1] and more than 10 µM at GR [3] (read-out: RC50, result type EC50). The Emax on AR [1] (NHR Nuclear Translocation AR Agonist, read-out: Max response) stood at 0%; at AR [2] (NHR Nuclear Translocation AR Antagonist, read-out: Max response), 4.6%; on GR [3] (read-out: Max response), 0%; at GR [4] (read-out: Max response) it was 2.6%. The concentration for half-maximal inhibition (IC50) against AR [2] is more than 10 µM; at GR [4] (read-out: RC50, result type IC50), more than 10 µM.
